Bases are written 5' to 3'; sugars and linkages follow in the same order, as letters with counts (s phosphorothioate, o phosphodiester; PS: all linkages phosphorothioate). The collection does not say whether C is 5-methylated. l = locked nucleic acid (LNA); d = 2'-deoxy (DNA)

The data set has as its target Tau. Nature of the data set: rat primary cortical neurons, FLIPR, 25 uM ASO.
On to GAAAGAGGGCAGCAGG (sugars l3 d10 l3, PS), for which the calcium oscillation score was 0 % of control.

As for “GAAAGATGAAATTTGCTCTT (sugars l3 d14 l3, PS)”, the calcium oscillation score was 100 % of control.

In the case of GAAATCCCTCTACTCC (sugars l2 d11 l3, PS), the calcium oscillation score is 70.7 % of control.

In the case of “GAAATCCCTCTACTCCA (sugars l3 d12 l2, PS)”, the calcium oscillation score is 73.7 % of control.

On to “GAACAGGAGAGCCATTTCCC (sugars l3 d14 l3, PS)”, for which the calcium oscillation score is 7.14 % of control.

On to GAACTATTGATAAA (sugars l3 d8 l3, PS), for which the calcium oscillation score was 85.7 % of control.

In the case of GAACTGCGAGGAGCAG (sugars l3 d10 l3, PS), the calcium oscillation score is 85.2 % of control.

Regarding GAACTGGTTAGCCCTA (sugars l3 d10 l3, PS), the calcium oscillation score is 79.9 % of control.

On to “GAACTTCTAGTTATACAGTT (sugars l3 d14 l3, PS)”, for which the calcium oscillation score is 26.2 % of control.

GAAGGTCAGCTTGTGG (sugars l3 d10 l3, PS): the calcium oscillation score is 11.4 % of control.

In the case of GAAGGTGGCTCTGGGC (sugars l3 d10 l3, PS), the calcium oscillation score is 0 % of control.

With “GAAGTCCCGAGCCAAAGCCG (sugars l3 d14 l3, PS)”, the calcium oscillation score is 5.18 % of control.

As to GAATAACATTAACCCT (sugars l4 d8 l4, PS), the calcium oscillation score was 74.5 % of control.

As for GAATATTACACCATCC (sugars l4 d8 l4, PS), the calcium oscillation score is 97 % of control.

As for “GACACCTCGTCAGCTAGCGT (sugars l3 d14 l3, PS)”, the calcium oscillation score was 11.7 % of control.

With GACCCTTTTTCTTAAC (sugars l4 d10 l2, PS), the calcium oscillation score was 59.1 % of control.

“GACGTGGGTGATATTGTCCA (sugars l3 d14 l3, PS)”: the calcium oscillation score is 0 % of control.

Regarding GACGTTGCTAAGATCC (sugars l3 d10 l3, PS), the calcium oscillation score is 22.6 % of control.

In the case of “GACTGCTCAGCTAAGACCCT (sugars l3 d14 l3, PS)”, the calcium oscillation score was 31.2 % of control.

In the case of GACTTGGGTGGAGTAC (sugars l3 d10 l3, PS), the calcium oscillation score was 0 % of control.

“GACTTGGGTGGAGTACGGAC (sugars l3 d14 l3, PS)”: the calcium oscillation score was 0 % of control.

On to GACTTGTACACGAT (sugars l3 d8 l3, PS), for which the calcium oscillation score was 112 % of control.

Take “GACTTGTACACGATCTCCGC (sugars l3 d14 l3, PS)”: the calcium oscillation score is 66.8 % of control.

For GAGAACTGGTTAGCCC (sugars l3 d10 l3, PS), the calcium oscillation score is 2.3 % of control.

Consider “GAGACCACATTATCATCCAT (sugars l3 d14 l3, PS)”, for which the calcium oscillation score was 52.4 % of control.

In the case of “GAGAGACCACATTATCATCC (sugars l3 d14 l3, PS)”, the calcium oscillation score was 96.7 % of control.

As for “GAGCACTAACTCTAAGTAGA (sugars l3 d14 l3, PS)”, the calcium oscillation score is 23.8 % of control.

With “GAGCCACACTTGGAGGTCAC (sugars l3 d14 l3, PS)”, the calcium oscillation score is 0 % of control.

Turning to GAGGAACGTGTGGATG (sugars l3 d10 l3, PS), the calcium oscillation score was 3.7 % of control.

On to GAGGCACAAGTCCTTA (sugars l3 d10 l3, PS), for which the calcium oscillation score is 76.2 % of control.

As to GAGTCTACCATGTCGA (sugars l3 d10 l3, PS), the calcium oscillation score was 65.2 % of control.

Regarding GAGTGCTCTTAGCATC (sugars l3 d10 l3, PS), the calcium oscillation score is 33.3 % of control.

Take GAGTTTGTGCAAGGTC (sugars l3 d10 l3, PS): the calcium oscillation score was 0 % of control.

Consider GATACATGCGTCCTTT (sugars l3 d10 l3, PS), for which the calcium oscillation score was 110 % of control.

On to GATACCCTTCCTCAGA (sugars l2 d12 l2, PS), for which the calcium oscillation score is 30.9 % of control.

On to “GATACTCAAATTCTTCC (sugars l4 d10 l3, PS)”, for which the calcium oscillation score was 67.8 % of control.

With “GATATTCATTCCCTCAC (sugars l2 d11 l4, PS)”, the calcium oscillation score is 57.2 % of control.

Take GATATTCCACACATAA (sugars l4 d8 l4, PS): the calcium oscillation score was 54.8 % of control.

As to “GATATTGTCCAGGGACCCAA (sugars l3 d14 l3, PS)”, the calcium oscillation score was 9.97 % of control.

In the case of GATCTTAGGCTGGC (sugars l3 d8 l3, PS), the calcium oscillation score is 4.6 % of control.

Regarding GATCTTAGGCTGGCC (sugars l3 d9 l3, PS), the calcium oscillation score was 8.13 % of control.

GATCTTAGGCTGGCCC (sugars l3 d10 l3, PS): the calcium oscillation score was 90.7 % of control.

For GATGCAGGAGTTGTAA (sugars l3 d10 l3, PS), the calcium oscillation score was 0 % of control.

For the sequence “GATGGATGTTGCCTAATGAG (sugars l3 d14 l3, PS)”, the calcium oscillation score is 0 % of control.

For the sequence GATGTTGCCTAATGAG (sugars l3 d10 l3, PS), the calcium oscillation score was 0 % of control.

Consider “GATGTTGCCTAATGAGCCAC (sugars l3 d14 l3, PS)”, for which the calcium oscillation score was 4.52 % of control.

Take GATTAACCAATTAACC (sugars l3 d10 l3, PS): the calcium oscillation score is ≥ 200 % of control.

In the case of “GATTAACCAATTAACCGAAC (sugars l3 d14 l3, PS)”, the calcium oscillation score is 98.8 % of control.

As for GATTTTACTACTCTCTT (sugars l4 d9 l4, PS), the calcium oscillation score was 85.5 % of control.

Turning to GCAAACAGGATACAGT (sugars l3 d10 l3, PS), the calcium oscillation score is 0 % of control.

In the case of GCAAACCACTCTTATT (sugars l4 d10 l2, PS), the calcium oscillation score is 95.4 % of control.

Turning to “GCAAACCACTCTTATTC (sugars l4 d10 l3, PS)”, the calcium oscillation score is 86.8 % of control.

On to GCAACAATCCAACCAC (sugars l2 d10 l4, PS), for which the calcium oscillation score was 76.3 % of control.

For “GCAACAATCCAACCACT (sugars l3 d12 l2, PS)”, the calcium oscillation score is 65.4 % of control.

As for GCAATAGCAAACAGG (sugars l3 d9 l3, PS), the calcium oscillation score was 40.8 % of control.

In the case of “GCACCAGGAACCTTCCAGAA (sugars l3 d14 l3, PS)”, the calcium oscillation score is 12.8 % of control.

Take GCACCATATTACACCA (sugars l3 d11 l2, PS): the calcium oscillation score was 95.9 % of control.

For “GCACCCACTTTCCTAATT (sugars l2 d14 l2, PS)”, the calcium oscillation score was 51.6 % of control.

Turning to “GCACCCTCCAAATCACCA (sugars l1 d15 l2, PS)”, the calcium oscillation score is 50.6 % of control.

For “GCAGACACCTCGTCAGCTAG (sugars l3 d14 l3, PS)”, the calcium oscillation score was 59.6 % of control.

Consider GCAGAGGAACGTGTGG (sugars l3 d10 l3, PS), for which the calcium oscillation score is 0 % of control.

In the case of GCAGGCGCGAGCAG (sugars l3 d8 l3, PS), the calcium oscillation score was 40.6 % of control.

Turning to GCAGGCGCGAGCAGCG (sugars l3 d10 l3, PS), the calcium oscillation score was 23.5 % of control.

“GCAGGTATCCAGCCATATTT (sugars l3 d14 l3, PS)”: the calcium oscillation score was 29.4 % of control.

On to “GCAGGTTAAGTGATTAACCA (sugars l3 d14 l3, PS)”, for which the calcium oscillation score is 36.3 % of control.

As to GCATCAGAGGTTTCAG (sugars l3 d10 l3, PS), the calcium oscillation score is 0 % of control.

Consider GCATGATTGTGGGC (sugars l3 d8 l3, PS), for which the calcium oscillation score is 85.7 % of control.

Consider GCATGATTGTGGGCT (sugars l3 d9 l3, PS), for which the calcium oscillation score was 0 % of control.

Regarding GCATGATTGTGGGCTT (sugars l3 d10 l3, PS), the calcium oscillation score was 47.4 % of control.

These data come from the OligoGym collection.
